# Patent US20050288373A1, “Methods of treating various conditions by administration of sustained release L-arginine” (priority 2002, published 2005)
# Experiments:
# total cholesterol = assay: Change in total cholesterol levels; type: in vivo, human; details: resulting from treatment, 3 weeks
# Protocol: (§1) Endothelium-dependent vasodilation was assessed by brachial artery ultrasound using computer-assisted image analysis; ADMA and L-arginine plasma concentrations were determined by a validated HPLC method.
# (§2) In the study described in Example 15, the change in total cholesterol (TC), LDL cholesterol, HDL cholesterol, and triglycerides was analyzed pre- and post-treatment.
# HDL cholesterol = details: resulting from treatment, 3 weeks
# Protocol: as §1, §2
# LDL cholesterol = details: resulting from treatment, 3 weeks
# Protocol: as §1, §2
# triglycerides = assay: Triglyceride levels pre- and post-treatment; type: in vivo, human; details: for No. of subjects outside normal range, triglycerides: 15 subjects
# [1] = resulting from treatment, 3 weeks
compound,measurement,setting,value
"CCC(C)(C)C(=O)O[C@H]1C[C@@H](C)C=C2C=C[C@H](C)[C@H](CC[C@@H]3C[C@@H](O)CC(=O)O3)[C@H]21 [Simvastatin, simvastatin]","Change in Total Cholesterol Levels, Mean",total cholesterol,-76.3 mg/dL
same,"Change in Total Cholesterol Levels, Median",total cholesterol,-78.0 mg/dL
same,"Change in Total Cholesterol Levels, Min-Max",total cholesterol,-134 to -14 mg/dL
same,"Change in High Density Lipoprotein Cholesterol Levels, Mean",HDL cholesterol,1.2 mg/dL
same,"Change in High Density Lipoprotein Cholesterol Levels, Median",HDL cholesterol,0.0 mg/dL
same,"Change in High Density Lipoprotein Cholesterol Levels, Min-Max",HDL cholesterol,-7 to 20 mg/dL
same,"Change in Low Density Lipoprotein Cholesterol Levels, Mean",LDL cholesterol,-70.7 mg/dL
same,"Change in Low Density Lipoprotein Cholesterol Levels, Median",LDL cholesterol,-78.0 mg/dL
same,"Change in Low Density Lipoprotein Cholesterol Levels, Min-Max",LDL cholesterol,-121 to -20 mg/dL
same,"Triglyceride Levels, Mean","triglycerides; after treatment, 3 weeks",140.2 mg/dL
same,"Triglyceride Levels, Median","triglycerides; after treatment, 3 weeks",134.0 mg/dL
same,"Triglyceride Levels, Min-Max","triglycerides; after treatment, 3 weeks",58 to 440 mg/dL
same,"No. of subjects outside normal range, triglycerides","triglycerides; after treatment, 3 weeks",1
same,"Triglyceride Levels, Mean",triglycerides; before treatment,165.1 mg/dL
same,"Triglyceride Levels, Median",triglycerides; before treatment,155.0 mg/dL
same,"Triglyceride Levels, Min-Max",triglycerides; before treatment,51 to 337 mg/dL
same,"No. of subjects outside normal range, triglycerides",triglycerides; before treatment,5
same,"Change in Triglyceride Levels, Mean",triglycerides; [1],-24.9 mg/dL
same,"Change in Triglyceride Levels, Median",triglycerides; [1],-38.0 mg/dL
same,"Change in Triglyceride Levels, Min-Max",triglycerides; [1],-143 to 205 mg/dL
